A word on the Km: it is the concentration of substrate that gives half-maximal velocity.

One experiment concerns the target T1, PmCntL (Paenibacillus mucilaginosus, UniProt H6NF62).
T1 sequence (H6NF62 1-276): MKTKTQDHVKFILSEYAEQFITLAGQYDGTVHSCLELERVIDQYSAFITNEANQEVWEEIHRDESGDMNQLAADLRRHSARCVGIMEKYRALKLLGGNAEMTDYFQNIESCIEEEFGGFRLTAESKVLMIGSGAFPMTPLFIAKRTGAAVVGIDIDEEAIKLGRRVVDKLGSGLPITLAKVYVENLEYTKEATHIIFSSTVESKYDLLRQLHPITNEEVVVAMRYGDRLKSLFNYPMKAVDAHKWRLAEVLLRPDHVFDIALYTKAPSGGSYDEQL
Description: TLC of products from carboxyl-[…]-labeled SAM. In kind it is biochemical. The conditions noted are these: 10 µM D-histidine, 2.5 µM [14C]SAM, pH 9, 28 °C, 30 min.

The target in a further experiment is T2, PmCntM (Paenibacillus mucilaginosus, UniProt H6NF63).
T2 sequence (H6NF63 1-440): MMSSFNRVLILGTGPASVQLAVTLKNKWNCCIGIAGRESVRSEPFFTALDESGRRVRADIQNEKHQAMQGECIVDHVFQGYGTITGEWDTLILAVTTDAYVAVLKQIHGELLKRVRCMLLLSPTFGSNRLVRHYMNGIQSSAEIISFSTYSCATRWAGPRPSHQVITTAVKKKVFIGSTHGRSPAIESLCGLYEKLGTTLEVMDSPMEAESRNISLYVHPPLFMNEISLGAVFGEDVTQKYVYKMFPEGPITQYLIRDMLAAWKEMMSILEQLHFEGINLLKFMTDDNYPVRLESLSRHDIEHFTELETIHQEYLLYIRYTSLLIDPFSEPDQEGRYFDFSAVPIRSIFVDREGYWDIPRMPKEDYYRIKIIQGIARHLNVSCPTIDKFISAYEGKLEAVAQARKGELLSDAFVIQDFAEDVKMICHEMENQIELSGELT
As to the kind of experiment: NADPH oxidation at […] nm, initial rates. It is filed as biochemical.

Experiment [1] has as its target T3, SaCntM (Staphylococcus aureus, UniProt A0A0H3JT80).
T3 sequence (A0A0H3JT80 1-433): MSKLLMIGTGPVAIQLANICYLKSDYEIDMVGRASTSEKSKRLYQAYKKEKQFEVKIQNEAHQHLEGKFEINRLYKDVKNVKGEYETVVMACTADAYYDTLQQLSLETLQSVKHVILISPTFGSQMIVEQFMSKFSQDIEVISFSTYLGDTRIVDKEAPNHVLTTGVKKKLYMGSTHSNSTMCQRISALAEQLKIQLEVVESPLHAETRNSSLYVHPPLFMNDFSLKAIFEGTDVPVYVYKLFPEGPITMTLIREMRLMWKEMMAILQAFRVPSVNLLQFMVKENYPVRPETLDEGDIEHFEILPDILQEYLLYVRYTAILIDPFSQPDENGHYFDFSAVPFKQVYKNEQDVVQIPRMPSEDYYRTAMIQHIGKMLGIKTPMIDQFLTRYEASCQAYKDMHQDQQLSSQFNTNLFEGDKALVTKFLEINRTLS
As to the kind of experiment: NADPH oxidation at […] nm, initial rates, Michaelis-Menten fit. To be noted: 0.2 mM NADPH, 1 mM pyruvate, pH 7, 28 °C. In kind it is biochemical.

The target of experiment [2] is T4, PaCntM (Pseudomonas aeruginosa, UniProt Q9HUX5).
T4 sequence (Q9HUX5 1-433): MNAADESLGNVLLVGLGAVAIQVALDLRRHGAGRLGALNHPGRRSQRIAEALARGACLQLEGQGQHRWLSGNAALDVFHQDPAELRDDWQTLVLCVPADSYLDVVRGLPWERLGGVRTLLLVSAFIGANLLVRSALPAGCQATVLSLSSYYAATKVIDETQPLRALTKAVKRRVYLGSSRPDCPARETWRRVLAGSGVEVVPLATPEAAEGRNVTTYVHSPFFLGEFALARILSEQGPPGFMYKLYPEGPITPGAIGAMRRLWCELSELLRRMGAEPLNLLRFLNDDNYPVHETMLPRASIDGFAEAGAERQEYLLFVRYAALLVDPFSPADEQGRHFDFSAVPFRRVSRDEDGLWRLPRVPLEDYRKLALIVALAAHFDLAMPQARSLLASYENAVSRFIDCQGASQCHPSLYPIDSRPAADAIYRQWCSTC
As to the kind of experiment: NADH oxidation at […] nm, initial rates, Michaelis-Menten fit. The conditions noted are these: 0.2 mM NADH, 1 mM α-ketoglutarate, pH 8, 28 °C.

Experiment [3] addresses T3, SaCntM. Description: NADPH oxidation at […] nm, initial rates, substrate inhibition model. In kind it is biochemical. The conditions noted are these: 0.2 mM NADPH, 1 mM pyruvate, pH 7, 28 °C.
Experiment [4] has as its target T4, PaCntM. Description: NADH oxidation at […] nm, initial rates, substrate inhibition model. The conditions noted are these: 0.2 mM NADH, 1 mM α-ketoglutarate, pH 8, 28 °C. It is filed as biochemical.
In experiment [5] the target is T3, SaCntM. Description: NADPH oxidation at […] nm, initial rates, substrate inhibition model. In kind it is biochemical. To be noted: 0.2 mM NADPH, 1 mM pyruvate, pH 7, 28 °C. This is another data set of the same source.
The target of experiment [6] is T4, PaCntM. As to the kind of experiment: NADH oxidation at […] nm, initial rates, substrate inhibition model. It is filed as biochemical. To be noted: 0.2 mM NADH, 1 mM α-ketoglutarate, pH 8, 28 °C. The source holds these as a separate data set.

Regarding `N[C@H](Cc1c[nH]cn1)C(=O)O` [D-histidine], on PmCntL, the “TLC of products from carboxyl-[14C]-labeled SAM” value is “PmCntL uses D-His and not L-His”.
`N[C@@H](CCN[C@H](Cc1c[nH]cn1)C(=O)O)C(=O)O` [xNA]: the Km at PmCntM amounted to 12 ± 1 µM; at SaCntM [1], 23 ± 3 µM; at PaCntM [2], 54 ± 20 µM.
Turning to `N[C@@H](CCN[C@@H](Cc1c[nH]cn1)C(=O)O)C(=O)O` [yNA], the Michaelis-Menten constant (Km) turned out to be 7 ± 1 µM on PmCntM, 47 ± 9 µM at SaCntM [5] and 21 ± 7 µM on PaCntM [6]. The Ki on SaCntM [3] was 2300 ± 800 µM; at PaCntM [4] it was 2400 ± 1000 µM.
